Results published in article PMC12373846, “Hemoglobin as a pseudoperoxidase and drug target for oxidative stress-related diseases” (Signal Transduction and Targeted Therapy, 2025).

Experiments:
HRP = target: T1, HRP (Armoracia rusticana, UniProt P00433); test: Amplex Red H2O2 assay (HRP-dependent); format: biochemical, horseradish; details: Fig. 1b; read-out: EC50, dose-response in Amplex Red assay
T1 sequence (P00433 31-353): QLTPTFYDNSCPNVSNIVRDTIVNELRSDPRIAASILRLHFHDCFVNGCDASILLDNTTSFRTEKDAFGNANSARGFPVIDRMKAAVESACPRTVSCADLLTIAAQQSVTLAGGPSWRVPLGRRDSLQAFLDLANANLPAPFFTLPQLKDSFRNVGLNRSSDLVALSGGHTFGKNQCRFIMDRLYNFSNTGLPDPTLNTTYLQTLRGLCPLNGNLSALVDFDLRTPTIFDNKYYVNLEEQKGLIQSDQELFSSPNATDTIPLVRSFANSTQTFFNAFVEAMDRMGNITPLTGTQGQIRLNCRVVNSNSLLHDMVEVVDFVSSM
Protocol: Hb (Sigma‒Aldrich, H7379), H2O2 (Sigma‒Aldrich, H1009), and Amplex Red reagents (Invitrogen, A12222) were obtained for the study. A 4 μM H2O2 solution was prepared in 50 mM sodium phosphate buffer (pH 7.2). Then, 49 μl of this mixture was mixed with 1 μl of the test compound in DMSO or distilled water. The mixture was combined with an assay mixture of Amplex Red reagent (20 mM stock to 0.1 mM) and HRP (200 U/ml stock to 0.2 U/ml) and added to the wells at 50 μl/well. After a 60-min incubation at 37 °C, resorufin production was quantified via a microplate fluorescence reader (SpectraMax iD5, Molecular Devices) at ex/em = 535/580 nm. The H2O2-decomposing activity was estimated via the following equation: (sample fluorescence-blank fluorescence)/(control […]-blank fluorescence) × 100. For the ROS-Glo assay, the H2O2 substrate solution and ROS-Glo detection solution were prepared according to the manufacturer’s instructions. 10 μM H2O2 and drugs were prepared as in the Amplex Red assay, with HRP, Hb, CAT, or GPx added as needed. […] Luminescence was measured via iD5 microplate readers. The H2O2-decomposing activity was estimated via the following equation: (sample luminescence-blank luminescence)/(control luminescence-blank luminescence) × 100. The U/ml was calculated on the basis of the amount of H2O2 reduced by Hb during the reaction, using μg/ml and U/mg.

mouse hemoglobin (mHb) = target: T2, mouse hemoglobin (mHb) (Mus musculus, UniProt P02088); test: ROS-Glo H2O2 assay with mouse hemoglobin; format: biochemical; details: Fig. S1f; read-out: EC50, H2O2 decomposition with mouse hemoglobin (mHb)
T2 construct: Mouse hemoglobin (Hb) purified from erythrocytes; purchased CUSABIO CSB-NP004901m; host or cells: erythrocytes
T2 sequence (P02088 2-147 limits assumed): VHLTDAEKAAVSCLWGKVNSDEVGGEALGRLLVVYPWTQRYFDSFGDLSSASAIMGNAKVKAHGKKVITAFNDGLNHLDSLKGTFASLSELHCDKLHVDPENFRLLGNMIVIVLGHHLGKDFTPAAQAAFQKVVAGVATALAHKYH
T2 sequence (P01942 2-142 partner limits assumed): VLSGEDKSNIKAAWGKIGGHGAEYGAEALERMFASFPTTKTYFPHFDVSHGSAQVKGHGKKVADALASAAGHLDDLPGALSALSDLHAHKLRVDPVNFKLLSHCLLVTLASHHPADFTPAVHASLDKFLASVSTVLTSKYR
Protocol: Mouse hemoglobin (Hb) purified from erythrocytes (Cat. CSB-NP004901m, CUSABIO) was used for the ROS-Glo H2O2 assay. KDS12025 was added in a dose-dependent manner to a reaction mixture containing mouse Hb and H2O2. The assay was performed according to the manufacturer’s protocol (Promega), and luminescence was measured using an iD5 plate reader. H2O2-decomposing activity was calculated as the percentage reduction in luminescence relative to controls. Assays with human Hb were conducted in parallel for comparison.

C57BL/6J mice = test: Arterial blood P50 and Hb concentration; format: in vivo, mouse; details: 0.1, 1 or 10 mg/kg, 24 h
Protocol: The mice were placed in a supine position to expose the thoracic area. The mice were anesthetized with 2.5% sevoflurane and placed in the supine position. Mechanical ventilation was provided via a custom-made face mask connected to a ventilator (Ventstar small animal ventilator R415, RWD) set to deliver room air (FiO2 = 0.21), with a respiratory rate of 180 breaths per min and a tidal volume of 10 μl/g body weight. Without a surgical incision, a 1 ml syringe was directly inserted into the heart to collect bright red arterial blood. Care was taken to avoid venous sampling, and blood was passively drawn into the syringe under physiological arterial pressure. The collected arterial blood was immediately analyzed via an i-STAT® 1 Analyzer (Abbott) with CG8+ cartridges to measure pO2 (mmHg), SO2 (%), and hemoglobin concentrations (g/dL). P₅₀ values were calculated via the following equation: P50=pO2×1−SO2/SO2^1/n, n=2.711

Row | EC50 (HRP) [µM] | Compound | EC50 (mouse hemoglobin (mHb)) [µM] | arterial oxygen affinity (P50) vs vehicle (C57BL/6J mice) | total Hb concentration in the blood (C57BL/6J mice)
1 | 1.8 | O=C(O)c1cc(NCCc2ccc(C(F)(F)F)cc2)ccc1O [HTPEB, 2-hydroxy-5-[2-(4-trifluoromethyl-phenyl)-ethylamino]-benzoic acid, reference compound] | – | – | –
2 | – | CNc1ccc(NCCc2ccccc2OC)cc1.Cl [KDS12025, N^1-(2-methoxyphenethyl)-N^4-methylbenzene-1,4-diamine hydrochloride salt] | 0.024 | did not differ | unaffected
